Measurements as given in the NIST ThermoML archive (doi:10.1021/je900387e).

Experiment: xn = mol fraction of the nth substance listed
Conditions: Liquid, Pycnometric method

CCCCBr [1-bromobutane] + O=C=O
Conditions | mass density [kg/m3]
317.9 K, 12010 kPa, x1 = 0.0989 | 916
317.9 K, 12060 kPa, x1 = 0.1495 | 1014
317.9 K, 12520 kPa, x1 = 0.1495 | 1018
317.9 K, 12610 kPa, x1 = 0.0989 | 923
317.9 K, 12970 kPa, x1 = 0.1495 | 1022
317.9 K, 13250 kPa, x1 = 0.0989 | 930
317.9 K, 13430 kPa, x1 = 0.1495 | 1026
317.9 K, 13860 kPa, x1 = 0.1495 | 1029
317.9 K, 13890 kPa, x1 = 0.0989 | 937
317.9 K, 14380 kPa, x1 = 0.1495 | 1033
317.9 K, 14630 kPa, x1 = 0.0989 | 944
317.9 K, 14800 kPa, x1 = 0.1495 | 1036
317.9 K, 14980 kPa, x1 = 0.0989 | 947
317.9 K, 15020 kPa, x1 = 0.1495 | 1038
322.7 K, 8260 kPa, x1 = 0.1495 | 946
322.7 K, 8470 kPa, x1 = 0.1495 | 948
322.7 K, 8500 kPa, x1 = 0.0989 | 818
322.7 K, 8710 kPa, x1 = 0.1495 | 952
322.7 K, 8720 kPa, x1 = 0.0989 | 825
322.7 K, 8810 kPa, x1 = 0.0683 | 731
322.7 K, 8820 kPa, x1 = 0.0245 | 422
322.7 K, 8840 kPa, x1 = 0.0245 | 425
322.7 K, 8860 kPa, x1 = 0.0461 | 629
322.7 K, 8880 kPa, x1 = 0.0245 | 432
322.7 K, 8880 kPa, x1 = 0.0683 | 735
322.7 K, 8900 kPa, x1 = 0.0461 | 632
322.7 K, 8920 kPa, x1 = 0.0245 | 439
322.7 K, 8920 kPa, x1 = 0.0989 | 830
322.7 K, 8920 kPa, x1 = 0.1495 | 954
322.7 K, 8940 kPa, x1 = 0.0461 | 639
322.7 K, 8960 kPa, x1 = 0.0245 | 447
322.7 K, 8970 kPa, x1 = 0.0683 | 740
322.7 K, 8990 kPa, x1 = 0.0461 | 647
322.7 K, 9000 kPa, x1 = 0.0245 | 455
322.7 K, 9060 kPa, x1 = 0.0461 | 655
322.7 K, 9070 kPa, x1 = 0.0245 | 465
322.7 K, 9070 kPa, x1 = 0.0683 | 745
322.7 K, 9110 kPa, x1 = 0.0245 | 473
322.7 K, 9120 kPa, x1 = 0.0461 | 662
322.7 K, 9160 kPa, x1 = 0.0245 | 482
322.7 K, 9160 kPa, x1 = 0.0683 | 750
322.7 K, 9160 kPa, x1 = 0.0989 | 836
322.7 K, 9160 kPa, x1 = 0.1495 | 958
322.7 K, 9190 kPa, x1 = 0.0461 | 671
322.7 K, 9210 kPa, x1 = 0.0245 | 491
322.7 K, 9250 kPa, x1 = 0.0683 | 755
322.7 K, 9260 kPa, x1 = 0.0245 | 500
322.7 K, 9270 kPa, x1 = 0.0461 | 679
322.7 K, 9320 kPa, x1 = 0.0245 | 510
322.7 K, 9360 kPa, x1 = 0.0683 | 759
322.7 K, 9370 kPa, x1 = 0.0245 | 520
322.7 K, 9380 kPa, x1 = 0.0461 | 687
322.7 K, 9380 kPa, x1 = 0.1495 | 961
322.7 K, 9400 kPa, x1 = 0.0989 | 841
322.7 K, 9430 kPa, x1 = 0.0245 | 531
322.7 K, 9480 kPa, x1 = 0.0461 | 696
322.7 K, 9480 kPa, x1 = 0.0683 | 765
322.7 K, 9500 kPa, x1 = 0.0245 | 542
322.7 K, 9570 kPa, x1 = 0.0245 | 553
322.7 K, 9600 kPa, x1 = 0.0683 | 770
322.7 K, 9610 kPa, x1 = 0.0461 | 705
322.7 K, 9650 kPa, x1 = 0.0989 | 847
322.7 K, 9660 kPa, x1 = 0.0245 | 565
322.7 K, 9670 kPa, x1 = 0.1495 | 964
322.7 K, 9730 kPa, x1 = 0.0683 | 775
322.7 K, 9750 kPa, x1 = 0.0245 | 576
322.7 K, 9810 kPa, x1 = 0.0461 | 718
322.7 K, 9850 kPa, x1 = 0.0245 | 590
322.7 K, 9870 kPa, x1 = 0.0683 | 780
322.7 K, 9910 kPa, x1 = 0.1495 | 968
322.7 K, 9930 kPa, x1 = 0.0245 | 599
322.7 K, 9930 kPa, x1 = 0.0989 | 853
322.7 K, 9990 kPa, x1 = 0.0245 | 606
322.7 K, 10000 kPa, x1 = 0.0245 | 608
322.7 K, 10050 kPa, x1 = 0.0683 | 786
322.7 K, 10090 kPa, x1 = 0.0461 | 733
322.7 K, 10160 kPa, x1 = 0.1495 | 971
322.7 K, 10230 kPa, x1 = 0.0683 | 791
322.7 K, 10240 kPa, x1 = 0.0989 | 859
322.7 K, 10420 kPa, x1 = 0.0461 | 748
322.7 K, 10420 kPa, x1 = 0.0683 | 797
322.7 K, 10440 kPa, x1 = 0.1495 | 974
322.7 K, 10550 kPa, x1 = 0.0989 | 870
322.7 K, 10620 kPa, x1 = 0.0683 | 802
322.7 K, 10760 kPa, x1 = 0.1495 | 977
322.7 K, 10820 kPa, x1 = 0.0461 | 764
322.7 K, 10840 kPa, x1 = 0.0683 | 808
322.7 K, 10910 kPa, x1 = 0.0989 | 872
322.7 K, 10980 kPa, x1 = 0.1495 | 980
322.7 K, 11080 kPa, x1 = 0.0683 | 814
322.7 K, 11270 kPa, x1 = 0.0989 | 877
322.7 K, 11290 kPa, x1 = 0.0461 | 779
322.7 K, 11340 kPa, x1 = 0.0683 | 820
322.7 K, 11370 kPa, x1 = 0.1495 | 984
